Laboratory results: publication PMC6338644 (The FASEB Journal, 2018)
Where “and” joins values, the source holds several entries; their conditions need not be identical. Equal values may be shown once. Where a name gives a salt, the structure may show the parent alone. Read-outs that look alike come from different tables or passages of the source.

Tests used:
[1] = biological target: T1, phosphatase and tensin homolog (PTEN) (Homo sapiens, UniProt P60484); test: Manual malachite green phosphate assay, PTEN activity; assay type: biochemical
T1 construct: purchased Signalchem
T1 sequence (P60484 whole entry, species assumed): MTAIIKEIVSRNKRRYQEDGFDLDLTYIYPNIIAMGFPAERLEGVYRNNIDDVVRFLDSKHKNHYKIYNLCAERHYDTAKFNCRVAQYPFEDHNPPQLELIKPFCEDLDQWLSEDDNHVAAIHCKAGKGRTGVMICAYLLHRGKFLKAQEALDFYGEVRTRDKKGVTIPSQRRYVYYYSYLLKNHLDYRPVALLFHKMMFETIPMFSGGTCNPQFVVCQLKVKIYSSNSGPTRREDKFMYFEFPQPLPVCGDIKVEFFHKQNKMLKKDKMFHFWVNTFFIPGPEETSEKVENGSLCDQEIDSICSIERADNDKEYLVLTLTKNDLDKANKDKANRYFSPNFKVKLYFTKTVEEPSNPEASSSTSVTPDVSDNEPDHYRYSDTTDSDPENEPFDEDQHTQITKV

[2] = test system: SHIP2 immunoprecipitated from the lysates of L6 myotubes; assay type: cell-based, rat; details: 20–24 h
Experimental: Immortalized human podocytes were maintained as previously described ([10]). […] Podocytes were lysed as previously described ([21]).
(§1) Recombinant His-tagged human SHIP2 and SHIP1 phosphatase domains were produced as previously described ([17]). […] Immunocomplexes were bound to protein G-Sepharose beads at +4°C for 2 h and washed 3 times with malachite green phosphate assay buffer {10 mM 4-(2-hydroxyethyl)-1-piperazineethanesulfonic acid (HEPES), pH 7.25, 6 mM MgCl2, 0.1% 3-[(3-cholamidopropyl)dimethylammonio]-1-propanesulfonate (CHAPS), 250 mM sucrose, and 0.25 mM EDTA}.
(§2) The catalytic activities of the recombinant SHIP2 and SHIP1 phosphatase domains were determined by malachite green phosphate assay at the High Throughput Biomedicine Unit (University of Helsinki) using D-myo-PI(3,4,5)P3 (Echelon Biosciences, Salt Lake City, UT, USA). Different volumes, resulting in desired final concentrations of inhibitors, were transferred to the wells of 384-well plates by using the Echo550 acoustic dispenser (Labcyte, San Jose, CA, USA). Recombinant protein (100 ng) in reaction buffer {10 mM HEPES, pH 7.25, 6 mM MgCl2, 0.1% CHAPS, 250 mM sucrose, and 0.25 mM EDTA} was placed in each well (7.5 µl), and the plates were preincubated at room temperature for 15 min. The phosphatase reaction was started by adding PI(3,4,5)P3 diluted in the reaction buffer (7.5 µl) to each well to reach a final concentration of 100 µM PI(3,4,5)P3 in the 15 µl reaction volume. The plates were incubated at room temperature for 20 min, after which, 15 µl BIOMOL green reagent (Biomol, Plymouth Meeting, PA, USA) was added to each well, and then the plates were incubated for another 25 min at room temperature. Absorbance was measured at 620 nm using a Pherastar FS plate reader (BMG Labtech, Offenburg, Germany). For the manual malachite green phosphate assay in 96-well plates [see Fig. 1; and activity measurement of phosphatase and tensin homolog (PTEN; Signalchem, Richmond, BC, Canada)], the reaction volume was increased to 50 µl, and 100 µl Biomol Green Reagent was added. The catalytic activity of SHIP2 immunoprecipitated from cell and tissue lysates was determined as in Saurus et al. ([22]), omitting SHIP2 inhibitors in lysis buffer, immunoprecipitation reaction, wash, and assay buffers. AS1949490 was synthesized, as described in Supplemental Fig. S1A, or purchased from Tocris Bioscience (Bristol, United Kingdom).
Hydrogen bond is shown in green. Hydrophobic residues are shown in gray, positive-charged residues in blue, and negative-charged residues in red. […] The catalytic activity of SHIP2 was measured by manual malachite green phosphate assay.

[3] = biological target: T2, His-tagged human SHIP1 phosphatase domain (Homo sapiens, UniProt Q92835); test: Malachite green phosphate assay, recombinant SHIP1 phosphatase domain (High Throughput Biomedicine Unit); assay type: biochemical; details: for IC50: purified His-tagged phosphatase domain
T2 construct: Recombinant His-tagged human SHIP2 and SHIP1 phosphatase domains were produced as previously described; His; made in house
T2 sequence (Q92835 399-715 limits assumed): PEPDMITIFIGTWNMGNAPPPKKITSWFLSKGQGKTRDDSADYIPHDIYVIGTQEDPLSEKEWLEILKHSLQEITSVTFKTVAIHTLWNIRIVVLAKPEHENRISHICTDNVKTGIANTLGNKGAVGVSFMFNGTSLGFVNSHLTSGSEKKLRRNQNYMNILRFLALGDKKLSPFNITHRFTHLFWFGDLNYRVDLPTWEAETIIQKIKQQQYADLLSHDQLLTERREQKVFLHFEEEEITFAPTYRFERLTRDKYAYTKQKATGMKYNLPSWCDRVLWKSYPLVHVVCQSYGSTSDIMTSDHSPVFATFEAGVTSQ
Experimental: as §1, §2

[4] = biological target: T3, His-tagged human SHIP2 phosphatase domain (Homo sapiens, UniProt O15357); test: Malachite green phosphate assay, recombinant SHIP2 phosphatase domain (High Throughput Biomedicine Unit, 384-well); assay type: biochemical
T3 construct: we produced a His-tagged human SHIP2 phosphatase domain; His; made in house
T3 sequence (O15357 419-732 limits assumed): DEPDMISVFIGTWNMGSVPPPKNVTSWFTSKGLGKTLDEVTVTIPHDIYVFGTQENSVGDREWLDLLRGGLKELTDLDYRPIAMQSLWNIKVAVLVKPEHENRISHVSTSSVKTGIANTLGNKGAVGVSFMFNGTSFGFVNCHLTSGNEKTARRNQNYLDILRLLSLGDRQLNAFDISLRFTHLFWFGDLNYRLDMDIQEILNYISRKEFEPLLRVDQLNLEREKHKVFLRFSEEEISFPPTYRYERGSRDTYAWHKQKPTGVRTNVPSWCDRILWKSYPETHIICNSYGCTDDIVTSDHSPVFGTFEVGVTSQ
Experimental: as §1, §2

[5] = inhibitors at 100 µM concentration, 100 µM

| inhibition of PTEN (in words) [1] | PTEN IC50 ([1]; manual assay) | inhibition of SHIP1 (in words) [3] | inhibition at 100 µM ([3]; inhibitors at 100 µM concentration, read-out: SHIP1 Inhibition efficiency) | inhibition at 100 µM ([4]; inhibitors at 100 µM concentration, read-out: SHIP2 Inhibition efficiency) | IC50 ([4]; purified His-tagged phosphatase domain, 100 µM PI(3,4,5)P3) | Compound | reduction of SHIP2 activity in myotubes ([2]; 20 µM) | reduction of SHIP2 activity in myotubes ([2]; 1 mM) | SHIP2 overexpression-induced SHIP2 activity in myotubes ([2]; L6 myotubes overexpressing SHIP2, 1 mM) | IC50 [3] | PTEN Inhibition efficiency ([1]; inhibitors at 100 µM concentration) | IC50 ([1]; manual assay) | SHIP1 Inhibition efficiency [3, 5] | SHIP2 Inhibition efficiency [4, 5] |
| --- | --- | --- | --- | --- | --- | --- | --- | --- | --- | --- | --- | --- | --- | --- |
| does not inhibit | >50 µM | does not inhibit | 11.1% | 39.4% | 6 µM | CN(C)C(=N)N=C(N)N [Metformin, 1,1-Dimethylbiguanide hydrochloride] | ~30% | 24% | to the level in the control | > 50 µM | – | – | – | – |
| – | – | – | – | – | – | C[C@H](NC(=O)c1sccc1OCc1ccc(Cl)cc1)c1ccccc1 [AS1949490] | ~30% | – | – | > 50 µM | 0% | > 50 µM | 12% and 11.8% | 26% and 25.9% |
